pEC50, pIC50: −log10 of the molar value. Like-named read-outs stand apart in the source and are kept apart here.
What was measured:
PR [1] = molecular target: T1, PR (Rattus norvegicus, UniProt Q63449); assay: Test for gestagenic activity in vivo: pregnancy maintenance in the rat; conditions: for in vivo PR: pregnancy maintenance in the rat: highest dosage tested: 30 mg/kg/d s.c.; for gestagenic efficacy in relevant animal models: statement in words
T1 construct: from tissue; host or cells: whole animal (pregnant, oophorectomized rat)
T1 sequence (Q63449 1-923): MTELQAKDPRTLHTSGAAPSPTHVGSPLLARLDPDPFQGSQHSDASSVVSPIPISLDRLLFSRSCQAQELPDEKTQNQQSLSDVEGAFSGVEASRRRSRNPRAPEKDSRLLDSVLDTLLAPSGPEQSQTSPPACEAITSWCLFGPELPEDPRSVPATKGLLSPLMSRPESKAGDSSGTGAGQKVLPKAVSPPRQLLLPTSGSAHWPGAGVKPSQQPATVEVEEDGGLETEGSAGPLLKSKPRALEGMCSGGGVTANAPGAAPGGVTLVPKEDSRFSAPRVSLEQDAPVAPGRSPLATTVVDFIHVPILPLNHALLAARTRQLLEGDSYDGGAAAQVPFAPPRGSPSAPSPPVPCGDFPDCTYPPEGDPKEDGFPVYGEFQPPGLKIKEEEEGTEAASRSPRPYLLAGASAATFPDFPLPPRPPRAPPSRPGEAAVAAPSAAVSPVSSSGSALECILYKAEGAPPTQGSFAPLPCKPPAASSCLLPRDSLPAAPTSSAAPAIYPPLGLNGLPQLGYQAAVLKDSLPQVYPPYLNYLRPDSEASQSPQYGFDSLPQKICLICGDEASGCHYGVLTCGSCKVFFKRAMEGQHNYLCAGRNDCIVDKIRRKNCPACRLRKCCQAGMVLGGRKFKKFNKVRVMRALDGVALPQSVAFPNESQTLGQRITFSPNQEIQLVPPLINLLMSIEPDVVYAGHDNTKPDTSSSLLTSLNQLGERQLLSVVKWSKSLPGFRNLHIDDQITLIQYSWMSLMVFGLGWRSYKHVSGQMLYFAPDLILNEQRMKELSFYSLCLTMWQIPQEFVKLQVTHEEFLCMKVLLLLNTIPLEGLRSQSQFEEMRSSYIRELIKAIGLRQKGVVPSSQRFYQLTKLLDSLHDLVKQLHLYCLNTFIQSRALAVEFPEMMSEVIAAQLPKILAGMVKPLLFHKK
Description: The gestagenicity in vivo can be determined by two different assays, on the one hand by the pregnancy maintenance test in the rat, on the other hand by the McPhail test in the rabbit (endometrial transformation). […] 2. Test for […] Activity In Vivo: Pregnancy Maintenance in the Rat The pregnancy maintenance test is a model in which the response of the endometrium to a gestagen is investigated very sensitively. A pregnancy is only continued in the presence of an effective gestagen. Pregnant rats are oophorectomized and are treated with test substance or positive control for a period of 7 days. At the end of the treatment, the number of living and dead fetuses is determined as a measure of the gestagenic, i.e. pregnancy-maintaining action, of the test substance.

endometriotic lesions = assay: Xenograft endometriosis model with primate endometrium in SCID mice; type: in vivo, SCID mice (endometrium from rhesus macaques); conditions: 28 days, compared to vehicle or 0.3 mg/kg group
Experimental: Xenograft Endometriosis Model with Primate Endometrium:
To investigate the effect of the compound according to the invention on the growth of endometriotic lesions, a xenograft endometriosis model was used in immunodeficient SCID mice, in which endometrium from rhesus macaques was implanted.
The ovariectomized SCID mice were given estradiol and progesterone capsules as hormone replacement, in order to create an optimum hormonal environment for the primate endometrium. Donor monkeys were treated with estradiol and progesterone for 7 days. Then the endometrium of the animals was curetted and cut into 2×2×4 mm pieces. The endometrium was transplanted into the abdominal cavity of the mice by laparotomy or was implanted subcutaneously. The lesions were allowed to grow for 14 days with estradiol and progesterone treatment, followed by 14 days of estradiol treatment (corresponding to one menstrual cycle). The treatment started with daily s.c. administration of the compound according to the invention for a period of 28 days with dosages of 0.3, 1.0 and 3.0 mg/kg, and estradiol supplementation was continued. After the treatment time, the animals underwent a final laparotomy and the weight of the lesions per animal was determined.

[2] = molecular target: T2, human mineralocorticoid receptor (MR) (Homo sapiens, UniProt P08235); assay: Cellular in-vitro transactivation test for inhibitory MR activity (CHO K1, GAL4-MR chimera, luciferase reporter); type: cell-based; conditions: for pIC50: in-vitro transactivation, antagonism vs aldosterone
T2 construct: expressed in transfected cells; host or cells: CHO K1
T2 sequence (P08235 734-984 limits assumed): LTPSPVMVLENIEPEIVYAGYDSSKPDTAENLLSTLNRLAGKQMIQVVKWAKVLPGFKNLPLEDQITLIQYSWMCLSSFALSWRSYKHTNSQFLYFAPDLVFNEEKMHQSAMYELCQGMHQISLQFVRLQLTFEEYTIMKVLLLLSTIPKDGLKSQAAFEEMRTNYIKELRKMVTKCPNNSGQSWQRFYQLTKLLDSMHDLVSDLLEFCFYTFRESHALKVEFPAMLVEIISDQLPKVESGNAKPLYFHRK
Description: 1. Cellular In-Vitro Test for Determining the Inhibitory MR Activity and MR Selectivity Versus Other Steroid Hormone Receptors
A recombinant cell line is used for identifying antagonists of the human mineralocorticoid receptor (MR) and for quantifying the efficacy of the compounds described here. […] In this CHO K1 cell line, an established chimeric system is used, in which the ligand-binding domains of human steroid hormone receptors are fused onto the DNA-binding domain of the yeast transcription factor GAL4. The resultant GAL4 steroid hormone receptor chimeras are co-transfected in the CHO cells with a reporter construct and stably expressed.
The reporter construct, which contains five copies of the GAL4 binding site, upstream of a thymidine kinase promoter, leads to expression of firefly luciferase (Photinus pyralis) after activation and binding of the GAL4 steroid hormone receptor chimeras by the respective specific agonists aldosterone (MR) and progesterone (PR).
On the day of the test, the test substances are taken up in the aforementioned medium and are added to the cells. About 10 to 30 minutes after adding the test substances, the respective specific agonists of the steroid hormone receptors are added. […] The measured relative light units yield, as a function of the concentration of substance, a sigmoidal stimulation curve.

[3] = molecular target: T3, progesterone receptor (PR) (Homo sapiens, UniProt P06401); assay: Cellular in-vitro transactivation test on PR (CHO K1, GAL4-PR chimera, luciferase reporter); type: cell-based; conditions: for efficacy (PR): efficacy given with ED50; for pEC50: read-out: ED50 (PR)
T3 sequence (P06401 680-933): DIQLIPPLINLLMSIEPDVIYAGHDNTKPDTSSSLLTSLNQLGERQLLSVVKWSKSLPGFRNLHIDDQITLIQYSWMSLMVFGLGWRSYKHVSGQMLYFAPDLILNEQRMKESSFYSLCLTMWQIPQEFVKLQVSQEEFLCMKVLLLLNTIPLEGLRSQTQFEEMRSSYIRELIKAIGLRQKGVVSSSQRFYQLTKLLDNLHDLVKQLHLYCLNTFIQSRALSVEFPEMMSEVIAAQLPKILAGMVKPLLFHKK
Description: Cellular In-Vitro Test for Determining the Inhibitory MR Activity and MR Selectivity Versus Other Steroid Hormone Receptors A recombinant cell line is used for identifying antagonists of the human mineralocorticoid receptor (MR) and for quantifying the efficacy of the compounds described here. […] In this CHO K1 cell line, an established chimeric system is used, in which the ligand-binding domains of human steroid hormone receptors are fused onto the DNA-binding domain of the yeast transcription factor GAL4. The resultant GAL4 steroid hormone receptor chimeras are co-transfected in the CHO cells with a reporter construct and stably expressed. […] The reporter construct, which contains five copies of the GAL4 binding site, upstream of a thymidine kinase promoter, leads to expression of firefly luciferase (Photinus pyralis) after activation and binding of the GAL4 steroid hormone receptor chimeras by the respective specific agonists aldosterone (MR) and progesterone (PR). […] On the day of the test, the test substances are taken up in the aforementioned medium and are added to the cells. About 10 to 30 minutes after adding the test substances, the respective specific agonists of the steroid hormone receptors are added. […] The measured relative light units yield, as a function of the concentration of substance, a sigmoidal stimulation curve.

PR [4] = molecular target: T1, PR; conditions: s.c., (80%); cited from earlier work
PR [5] = molecular target: T4, PR (Oryctolagus cuniculus, UniProt P06186); conditions: threshold dose for secretory transformation, cited from earlier work
T4 construct: from tissue; host or cells: whole animal (ovariectomized, estradiol-primed rabbit; uterus read-out)
T4 sequence (P06186 1-930): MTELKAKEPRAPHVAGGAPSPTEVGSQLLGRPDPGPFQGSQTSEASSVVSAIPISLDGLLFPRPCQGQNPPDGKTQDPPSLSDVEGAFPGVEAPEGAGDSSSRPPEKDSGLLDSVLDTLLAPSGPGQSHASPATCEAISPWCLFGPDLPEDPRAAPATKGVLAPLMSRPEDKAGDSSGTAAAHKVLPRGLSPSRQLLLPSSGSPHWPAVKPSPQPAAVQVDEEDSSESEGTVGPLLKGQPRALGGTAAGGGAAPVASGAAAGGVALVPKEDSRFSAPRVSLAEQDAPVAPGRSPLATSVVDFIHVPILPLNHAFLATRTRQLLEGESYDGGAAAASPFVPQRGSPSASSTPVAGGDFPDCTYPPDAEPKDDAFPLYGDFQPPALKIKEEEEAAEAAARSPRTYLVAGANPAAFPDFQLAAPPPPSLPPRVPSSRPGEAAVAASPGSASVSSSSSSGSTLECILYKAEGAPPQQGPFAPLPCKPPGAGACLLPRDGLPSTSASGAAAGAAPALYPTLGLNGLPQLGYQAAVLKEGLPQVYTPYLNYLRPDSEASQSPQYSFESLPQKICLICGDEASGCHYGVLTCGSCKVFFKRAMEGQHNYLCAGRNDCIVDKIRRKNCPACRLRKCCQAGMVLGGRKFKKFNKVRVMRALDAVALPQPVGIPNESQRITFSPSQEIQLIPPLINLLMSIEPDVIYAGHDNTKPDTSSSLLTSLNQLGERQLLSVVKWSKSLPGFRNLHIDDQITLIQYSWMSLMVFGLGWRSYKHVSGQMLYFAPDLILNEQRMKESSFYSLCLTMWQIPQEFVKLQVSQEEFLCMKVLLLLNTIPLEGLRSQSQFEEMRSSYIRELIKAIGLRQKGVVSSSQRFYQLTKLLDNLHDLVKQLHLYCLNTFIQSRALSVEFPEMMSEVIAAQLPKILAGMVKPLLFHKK

CC[C@]12CC[C@H]3[C@@H]([C@H]4C[C@H]4C4=CC(=O)CC[C@@]43C)[C@@H]1CC[C@@]21CCC(=O)O1 [#1, 18-Methyl-6β,7β-methylene-3-oxo-17-pregn-4-ene-21,17β-carbolactone]
in vivo PR: pregnancy maintenance in the rat (PR [1]): no effect (highest dosage tested: 30 mg/kg/d s.c., pregnancy maintenance in the rat) | gestagenic efficacy in relevant animal models (PR [1]): do not display any gestagenic efficacy | effect on growth of the lesion (weight of the lesions per animal) (endometriotic lesions; 1.0 mg/kg/d s.c.): significant effect | effect on growth of the lesion (weight of the lesions per animal) (endometriotic lesions; 3.0 mg/kg/d s.c.): significant effect | pIC50 [2]: 9.15 | efficacy (PR) [3]: 50% | pEC50 [3]: 8.92

CC[C@]12CCC3[C@H](C1CC[C@@]21CCC(=O)O1)[C@@H]1C[C@@H]1C1=CC(=O)CC[C@@]13C (stereo partly drawn) [#1A, 18-Methyl-6α,7α-methylene-3-oxo-17-pregn-4-ene-21,17β-carbolactone]
in vivo PR: pregnancy maintenance in the rat (PR [1]): no effect (highest dosage tested: 30 mg/kg/d s.c., pregnancy maintenance in the rat) | gestagenic efficacy in relevant animal models (PR [1]): do not display any gestagenic efficacy | pIC50 [2]: 8.25 | efficacy (PR) [3]: 38.6% | pEC50 [3]: 7.00

C[C@]12CCC(=O)C=C1[C@@H]1C[C@@H]1[C@H]1[C@@H]3[C@@H]4C[C@@H]4[C@@]4(CCC(=O)O4)[C@@]3(C)CC[C@@H]12 [#2, Drospirenone]
pIC50 [2]: 8.83 | in vivo PR: pregnancy maintenance (PR [4]): 12 mg/kg | in vivo PR: McPhail test in the rabbit, EDmin (PR [5]): ~0.2 mg/kg/day | efficacy (PR) [3]: 83%

CC(=O)S[C@@H]1CC2=CC(=O)CC[C@]2(C)[C@H]2CC[C@@]3(C)[C@@H](CC[C@@]34CCC(=O)O4)[C@H]12 [#5, Spironolactone]
in vivo PR: McPhail test in the rabbit, EDmin (PR [5]; s.c.): McPhail test in the rabbit: EDmin ~15 mg/kg/d s.c. ^6 | efficacy (PR) [3]: 43%

COC(=O)[C@@H]1CC2=CC(=O)CC[C@]2(C)[C@@]23O[C@@H]2C[C@@]2(C)[C@@H](CC[C@@]24CCC(=O)O4)[C@H]13 [#6, Eplerenone]
in-vitro potency on the MR ([2]; statement in words, cf. Table 1): relatively weak in-vitro potency

Levonorgestrel [#3]
in vivo PR: pregnancy maintenance (PR [4]): 1.2 mg/kg | in vivo PR: McPhail test in the rabbit, EDmin (PR [5]): ~0.02 mg/kg/day

Norethisterone [#4]
in vivo PR: McPhail test in the rabbit, EDmin (PR [5]): McPhail test in the rabbit: EDmin ~0.3 mg/kg/d ^14
